# Laboratory results as given in PubChem BioAssay (NCI).
#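 1) Cells in 96-well plates. 2) Compound, 48 h, 5 concentrations. 3) Linear interpolation between surrounding doses. 4) Unreached endpoint = highest concentration. The concentration for 50% growth inhibition is given as GI50. TGI denotes the concentration required for complete inhibition of growth.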
# Tests used:
# Assay in all cases: NCI anticancer screen, dose series, 48 h
# SF-539 CNS = system: SF-539 CNS
# K-562 leukemia = system: K-562 leukemia
# OVCAR-5 ovarian = system: OVCAR-5 ovarian
# UACC-257 melanoma = system: UACC-257 melanoma
# SR leukemia = system: SR leukemia
# SNB-75 CNS = system: SNB-75 CNS
# RXF 393 renal = system: RXF 393 renal
# HCT-15 colon = system: HCT-15 colon
# HT29 colon = system: HT29 colon
# SK-MEL-28 melanoma = system: SK-MEL-28 melanoma
# U251 CNS = system: U251 CNS
# ACHN renal = system: ACHN renal
# DU-145 prostate = system: DU-145 prostate
# NCI-H460 lung = system: NCI-H460 lung
# RPMI-8226 leukemia = system: RPMI-8226 leukemia
# SK-OV-3 ovarian = system: SK-OV-3 ovarian
# SK-MEL-5 melanoma = system: SK-MEL-5 melanoma
# NCI-H522 lung = system: NCI-H522 lung
# COLO 205 colon = system: COLO 205 colon
# HL-60(TB) leukemia = system: HL-60(TB) leukemia
# NCI-H226 lung = system: NCI-H226 lung
# SF-268 CNS = system: SF-268 CNS
# KM12 colon = system: KM12 colon
# CCRF-CEM leukemia = system: CCRF-CEM leukemia
# OVCAR-4 ovarian = system: OVCAR-4 ovarian
# MCF7 breast = system: MCF7 breast
# MOLT-4 leukemia = system: MOLT-4 leukemia
# HCT-116 colon = system: HCT-116 colon
# MDA-MB-435 = system: MDA-MB-435
# UACC-62 melanoma = system: UACC-62 melanoma
# NCI/ADR-RES ovarian = system: NCI/ADR-RES ovarian
# SNB-19 CNS = system: SNB-19 CNS
# BT-549 breast = system: BT-549 breast
# MALME-3M melanoma = system: MALME-3M melanoma
# SF-295 CNS = system: SF-295 CNS
# T-47D breast = system: T-47D breast
# A549 NSCLC = system: A549 NSCLC
# OVCAR-3 ovarian = system: OVCAR-3 ovarian
# PC-3 prostate = system: PC-3 prostate
# OVCAR-8 ovarian = system: OVCAR-8 ovarian
# HS 578T breast = system: HS 578T breast
# M14 melanoma = system: M14 melanoma
# HCC-2998 colon = system: HCC-2998 colon
# HOP-62 NSCLC = system: HOP-62 NSCLC
# UO-31 renal = system: UO-31 renal
# TK-10 renal = system: TK-10 renal
# HOP-92 NSCLC = system: HOP-92 NSCLC
# IGROV1 ovarian = system: IGROV1 ovarian
# MDA-MB-231 breast = system: MDA-MB-231 breast
# EKVX NSCLC = system: EKVX NSCLC
# A498 renal = system: A498 renal
# CAKI-1 renal = system: CAKI-1 renal
# SK-MEL-2 melanoma = system: SK-MEL-2 melanoma
# NCI-H23 lung = system: NCI-H23 lung
# SN12C renal = system: SN12C renal
# LOX IMVI melanoma = system: LOX IMVI melanoma
# 786-0 renal = system: 786-0 renal
# MDA-MB-468 breast = system: MDA-MB-468 breast
# SW-620 colon = system: SW-620 colon
structure (smiles),measurement,setting,value
N#Cc1ccc(-c2nn(-c3ccc(C(=O)O)cc3)cc2CNc2cc(Cl)cc(C(F)(F)F)c2)cc1,GI50,SF-539 CNS,11.4 µM
same,TGI,SF-539 CNS,24 µM
same,GI50,K-562 leukemia,3.71 µM
same,TGI,K-562 leukemia,> 100 µM
same,GI50,OVCAR-5 ovarian,18.5 µM
same,TGI,OVCAR-5 ovarian,36 µM
same,GI50,UACC-257 melanoma,7.02 µM
same,TGI,UACC-257 melanoma,40.2 µM
same,GI50,SR leukemia,3.77 µM
same,TGI,SR leukemia,> 100 µM
same,GI50,SNB-75 CNS,15.5 µM
same,TGI,SNB-75 CNS,45.6 µM
same,GI50,RXF 393 renal,10.3 µM
same,TGI,RXF 393 renal,24.7 µM
same,GI50,HCT-15 colon,3.93 µM
same,TGI,HCT-15 colon,15.8 µM
same,GI50,HT29 colon,13.5 µM
same,TGI,HT29 colon,38.2 µM
same,GI50,SK-MEL-28 melanoma,4.6 µM
same,TGI,SK-MEL-28 melanoma,28.3 µM
same,GI50,U251 CNS,7.26 µM
same,TGI,U251 CNS,32.6 µM
same,GI50,ACHN renal,6.42 µM
same,TGI,ACHN renal,52.7 µM
same,GI50,DU-145 prostate,11.9 µM
same,TGI,DU-145 prostate,> 100 µM
same,GI50,NCI-H460 lung,6.67 µM
same,TGI,NCI-H460 lung,21 µM
same,GI50,RPMI-8226 leukemia,3.87 µM
same,TGI,RPMI-8226 leukemia,63.5 µM
same,GI50,SK-OV-3 ovarian,15.1 µM
same,TGI,SK-OV-3 ovarian,37.9 µM
same,GI50,SK-MEL-5 melanoma,3.41 µM
same,TGI,SK-MEL-5 melanoma,13.5 µM
same,GI50,NCI-H522 lung,3.18 µM
same,TGI,NCI-H522 lung,12.1 µM
same,GI50,COLO 205 colon,14 µM
same,TGI,COLO 205 colon,58.6 µM
same,GI50,HL-60(TB) leukemia,6.31 µM
same,TGI,HL-60(TB) leukemia,31.8 µM
same,GI50,NCI-H226 lung,10.9 µM
same,TGI,NCI-H226 lung,30.6 µM
same,GI50,SF-268 CNS,14.3 µM
same,TGI,SF-268 CNS,67 µM
same,GI50,KM12 colon,5.71 µM
same,TGI,KM12 colon,19.3 µM
same,GI50,CCRF-CEM leukemia,4.2 µM
same,TGI,CCRF-CEM leukemia,20.8 µM
same,GI50,OVCAR-4 ovarian,7 µM
same,TGI,OVCAR-4 ovarian,> 100 µM
same,GI50,MCF7 breast,5.16 µM
same,TGI,MCF7 breast,26 µM
same,GI50,MOLT-4 leukemia,4.26 µM
same,TGI,MOLT-4 leukemia,22.9 µM
same,GI50,HCT-116 colon,4.46 µM
same,TGI,HCT-116 colon,17.1 µM
same,GI50,MDA-MB-435,7.05 µM
same,TGI,MDA-MB-435,56.4 µM
same,GI50,UACC-62 melanoma,3.64 µM
same,TGI,UACC-62 melanoma,14.4 µM
same,GI50,NCI/ADR-RES ovarian,7.45 µM
same,TGI,NCI/ADR-RES ovarian,26.8 µM
same,GI50,SNB-19 CNS,7.61 µM
same,TGI,SNB-19 CNS,33.7 µM
same,GI50,BT-549 breast,11.3 µM
same,TGI,BT-549 breast,31.1 µM
same,GI50,MALME-3M melanoma,6.44 µM
same,TGI,MALME-3M melanoma,31.9 µM
same,GI50,SF-295 CNS,4.79 µM
same,TGI,SF-295 CNS,22.9 µM
same,GI50,T-47D breast,3.8 µM
same,TGI,T-47D breast,> 100 µM
same,GI50,A549 NSCLC,7.98 µM
same,TGI,A549 NSCLC,32.1 µM
same,GI50,OVCAR-3 ovarian,4.98 µM
same,TGI,OVCAR-3 ovarian,18.6 µM
same,GI50,PC-3 prostate,7 µM
same,TGI,PC-3 prostate,35.1 µM
same,GI50,OVCAR-8 ovarian,7.28 µM
same,TGI,OVCAR-8 ovarian,27.8 µM
same,GI50,HS 578T breast,7.95 µM
same,TGI,HS 578T breast,36.1 µM
same,GI50,M14 melanoma,10.1 µM
same,TGI,M14 melanoma,35.1 µM
same,GI50,HCC-2998 colon,6.46 µM
same,TGI,HCC-2998 colon,19.8 µM
same,GI50,HOP-62 NSCLC,11.7 µM
same,TGI,HOP-62 NSCLC,28.3 µM
same,GI50,UO-31 renal,4.34 µM
same,TGI,UO-31 renal,22 µM
same,GI50,TK-10 renal,17.2 µM
same,TGI,TK-10 renal,> 100 µM
same,GI50,HOP-92 NSCLC,3.48 µM
same,TGI,HOP-92 NSCLC,15 µM
same,GI50,IGROV1 ovarian,10.8 µM
same,TGI,IGROV1 ovarian,29.3 µM
same,GI50,MDA-MB-231 breast,12.3 µM
same,TGI,MDA-MB-231 breast,37 µM
same,GI50,EKVX NSCLC,5.47 µM
same,TGI,EKVX NSCLC,30.8 µM
same,GI50,A498 renal,15.8 µM
same,TGI,A498 renal,41 µM
same,GI50,CAKI-1 renal,10.2 µM
same,TGI,CAKI-1 renal,45.2 µM
same,GI50,SK-MEL-2 melanoma,2.96 µM
same,TGI,SK-MEL-2 melanoma,9.48 µM
same,GI50,NCI-H23 lung,5.19 µM
same,TGI,NCI-H23 lung,19.4 µM
same,GI50,SN12C renal,6.89 µM
same,TGI,SN12C renal,33 µM
same,GI50,LOX IMVI melanoma,5.95 µM
same,TGI,LOX IMVI melanoma,20.3 µM
same,GI50,786-0 renal,14.1 µM
same,TGI,786-0 renal,32 µM
same,GI50,MDA-MB-468 breast,6.83 µM
same,TGI,MDA-MB-468 breast,38.8 µM
same,GI50,SW-620 colon,9.22 µM
same,TGI,SW-620 colon,25 µM
